Assay results from patent US5449677A, “Cyclic benzylamino, benzylamido and benzylimido antipsychotic agents” (McNeilab, Inc., priority 1993, dated 1995).
Structures can show the parent of a compound that is named as a salt.

Test: Block of Conditioned Avoidance Responding (Rat) test (CAR)
Format: in vivo, male Fischer 344 rats
Details: po, read-out: % inhibition CAR
Procedure: The sessions consist of 60 trials, one every minute.
% change CAR=((Day 2% CAR/Day 1% CAR)×100)-100
Failure to escape was calculated for each animal as follows:
% Failures=#of Failures to Escape/#of trials

SMILES | change in vivo at 5 mg/kg [%]
CC(C)Oc1ccccc1N1CCN(Cc2ccc(CN3CCCCC3=O)cc2)CC1 [CP #2, 1-[[4-[[1-[2-(1-Methylethoxy)phenyl]-4-piperazinyl]methyl]phenyl]methyl]-piperidin-2-one Hydrochloride (5:1)] | -29
CC(C)Oc1ccccc1N1CCN(Cc2cccc(CN3CCCCC3=O)c2)CC1 [CP #1, 1-[[3-[[1-[2-(1-Methylethoxy)phenyl]-4-piperazinyl]methyl]phenyl]methyl]piperidin-2-one Hydrochloride (3:2)] | -89
CC(C)Oc1ccccc1N1CCN(Cc2ccccc2CN2CCCCC2=O)CC1 [CP #3, 1-[[2-[[1-[2-(1-Methylethoxy)phenyl]-4-piperazinyl]methyl]phenyl]methyl]-piperidin-2-one Hydrochloride (3:2)] | -6
